The values below come from publication PMC3350798 (Journal of Medicinal Chemistry, 2012).

“Also recorded” adds a separate entry of the source. Like-named read-outs stand apart in the source and are kept apart here.

For test [1], the target named is T1, Tdp1 (Homo sapiens, UniProt Q9NUW8). As to the kind of experiment: FRET assay, mechanism of inhibition of Tdp1. It counts as biochemical.
For test [2], the target named is T1, Tdp1. As to the kind of experiment: Surface plasmon resonance binding to amine coupled Tdp1. The note with it: 33, 11, 3.7, 1.2 and 0.4 μM injected over amine coupled Tdp1. (In general: In SPR one partner is held on a chip, and binding of the other changes the refractive index at the surface.)
Test [3] has as its target T1, Tdp1. As to conditions: cited from earlier work.
The test system of test [4] is 60 human cancer cell lines. The note with it: read-out: MGM GI50, mean graph midpoint; cited from earlier work.
For test [5], the target named is T2, Human recombinant Top1 (Homo sapiens, UniProt P11387).
T2 sequence (P11387 1-765): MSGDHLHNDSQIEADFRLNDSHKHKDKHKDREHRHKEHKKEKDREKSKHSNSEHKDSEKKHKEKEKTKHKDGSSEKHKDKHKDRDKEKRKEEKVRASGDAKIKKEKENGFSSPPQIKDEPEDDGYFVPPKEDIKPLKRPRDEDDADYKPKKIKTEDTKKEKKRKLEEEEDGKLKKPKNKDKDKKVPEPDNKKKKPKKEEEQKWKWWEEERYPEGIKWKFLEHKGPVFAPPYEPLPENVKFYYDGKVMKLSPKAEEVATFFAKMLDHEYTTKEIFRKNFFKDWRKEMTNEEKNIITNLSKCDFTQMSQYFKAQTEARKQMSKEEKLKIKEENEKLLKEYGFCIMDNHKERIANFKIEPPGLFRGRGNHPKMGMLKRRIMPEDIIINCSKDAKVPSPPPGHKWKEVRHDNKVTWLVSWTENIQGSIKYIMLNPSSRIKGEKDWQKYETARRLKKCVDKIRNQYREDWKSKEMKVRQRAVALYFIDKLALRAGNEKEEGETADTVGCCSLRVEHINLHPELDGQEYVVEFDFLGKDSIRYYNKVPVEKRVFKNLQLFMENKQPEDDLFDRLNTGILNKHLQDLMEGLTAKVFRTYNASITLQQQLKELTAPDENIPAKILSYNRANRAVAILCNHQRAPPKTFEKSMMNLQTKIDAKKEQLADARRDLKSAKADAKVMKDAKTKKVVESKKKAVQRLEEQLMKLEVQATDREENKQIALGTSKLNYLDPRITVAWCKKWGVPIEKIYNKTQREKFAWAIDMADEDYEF
The experiment in a line: Topoisomerase I-mediated DNA cleavage assay. It counts as biochemical. The note with it: semiquantitative, relative to 1 μM camptothecin.

T1 sequence (Q9NUW8 whole entry): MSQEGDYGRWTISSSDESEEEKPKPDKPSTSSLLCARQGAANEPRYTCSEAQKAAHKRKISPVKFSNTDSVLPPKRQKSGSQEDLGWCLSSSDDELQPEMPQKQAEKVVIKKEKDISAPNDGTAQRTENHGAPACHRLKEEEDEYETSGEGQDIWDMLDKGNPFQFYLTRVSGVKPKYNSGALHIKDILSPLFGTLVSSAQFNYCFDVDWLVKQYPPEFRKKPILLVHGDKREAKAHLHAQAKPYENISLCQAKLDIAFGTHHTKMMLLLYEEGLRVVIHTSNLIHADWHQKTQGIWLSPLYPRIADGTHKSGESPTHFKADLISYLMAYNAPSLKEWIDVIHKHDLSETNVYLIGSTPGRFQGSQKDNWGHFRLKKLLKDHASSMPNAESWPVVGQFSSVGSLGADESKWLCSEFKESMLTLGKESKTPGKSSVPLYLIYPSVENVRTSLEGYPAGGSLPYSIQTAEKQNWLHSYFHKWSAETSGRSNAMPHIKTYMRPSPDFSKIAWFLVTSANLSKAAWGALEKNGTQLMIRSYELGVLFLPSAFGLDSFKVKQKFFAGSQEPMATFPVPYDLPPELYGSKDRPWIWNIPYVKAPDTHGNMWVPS

For the compound `Cl.NCCCn1c2c(c3ccccc3c1=O)C(=O)c1ccccc1-2` [compound 70], in test [1], the “Mechanism of inhibition of Tdp1” value is “competitive inhibitor”. In test [2], the “Binding to Tdp1 by surface plasmon resonance” value was “direct binding; also recorded: rapidly reaches equilibrium and then completely dissociates”. Turning to `[O]=[V]([O-])([O-])[O-]` [vanadate], the “Tdp1 inhibition” value in test [3] is recorded as “inhibition at millimolar concentrations”. Take `O=C1c2ccccc2-c2c1c1ccccc1c(=O)n2CCCNCCCNCCCn1c2c(c3ccccc3c1=O)C(=O)c1ccccc1-2` [compound 145, Bis-1,3-{(5,6-dihydro-5,11-diketo-11H-indeno[1,2-c]isoquinoline)-6-propylamino}propane Bis(trifluoroacetate)]: the GI50 – broadly, the concentration at which growth is held to half of that of the control – in test [4] is 394 nM. `C[C@]12CC[C@H]3[C@@H](CCC4=CC(=O)CC[C@@]43C)[C@@H]1CC[C@@H]2C(=O)COS(=O)(=O)c1ccc(Br)cc1` [compound 7, 4-Pregnen-21-ol-3,20-dione-21-(4-bromobenzenesufonate)]: the “Mechanism of inhibition of Tdp1” value in test [3] is “competitive with the DNA substrate”. For `Cl.NCCCCCCCCCCCCn1c2c(c3ccccc3c1=O)C(=O)c1ccccc1-2` [compound 79], the “Top1 (compound-induced DNA cleavage due to Top1 inhibition)” value in test [5] was 0/+.
